Paper PMC12316308, “Interactions of substrates and phosphinyl containing inhibitors with bacterial and human zinc proteases” (PLOS One, 2025)
Like-named read-outs stand apart in the source and are kept apart here. Where a SMILES comes first, the peptide text is derived from it. [ ]: non-standard residue; d: D form. The star is where a group is joined. Dnp = O=[N+]([O-])c1ccc(*)c([N+](=O)[O-])c1; Mca = COc1ccc2c(CC(=O)*)cc(=O)oc2c1; Dap = NC[C@H](N)C(=O)O

Tests used:
[1] = molecular target: T1, human MT1-MMP/MMP-14 (catalytic domain) (Homo sapiens, UniProt P50281); experiment: Enzyme inhibition kinetics, fluorogenic substrate ES001; assay type: biochemical; settings: for inhibitory effect on enzymatic activity: in words; for Ki: read-out: Ki ± s.d. (converted)
T1 construct: human MT1-MMP/MMP-14 (catalytic domain); purchased Calbiochem (San Diego, CA, USA)
Description: (§1) Determination of reaction velocities. The substrate ES001 was used for APMA activated MMP-9 (MMP-9(A)), Mag-Trypsin activated MMP-9 (MMP-9(MT)) and MMP-14, while the substrate ES005 was used for ALN, PLN and TLN. The reaction velocities/initial rates (v) were determined at 37°C, at an excitation wavelength of 320 nm and an emission wavelength of 405 nm with a slit width of 10 nm using either a Perkin Elmer LS 50 Luminescence spectrometer and the FL WinLab Software Package (Perkin Elmer) or a Clario Star micro plate reader (CLARIOstar® BMG LABTECH).
(§2) The phosphinic compounds were dissolved in 100% DMSO to a final concentration of 10 mM. In all assays, a fixed substrate concentration of 4.0 µM was used in a total volume of 100 µL 0.1 M Hepes pH 7.5, 10 mM CaCl2, 0.005% Brij-35 and 1.0% DMSO. Fixed enzyme concentrations were as follows; 0.05 nM MMP-9(A), 0.05 nM MMP-9(MT), 1.0 nM MMP-14, 1.4 nM ALN, 0.5 nM PLN and 0.21 nM TLN. Time dependent inhibitory experiments, with and without 100 μM of phosphinic compounds, were performed as follows: Compounds were either pre-incubated with proteases for 15 and 30 minutes at room temperature before initiating the enzymatic reaction by adding the substrate, or not pre-incubated, meaning the reaction was initiated by adding the protease to the mixture of substrate and compound. Control tests without the compound present were performed under the same conditions. Reactions were monitored for 30 minutes at 37°C.
(§3) Determination of IC50 and Ki values. […] A fixed substrate concentration and the same enzyme and buffer conditions as described above were used. Enzymes, with or without inhibitors, were either pre-incubated for 30 minutes at room temperature or not pre-incubated, and initial rate assays were performed as described above. Assays were performed using a Clario Star microplate reader. The IC50 values with corresponding s.d. were calculated with GraphPad Prism 5 using equation 1 or 2, depending on the concentration range of the phosphinic compounds.
(§4) Equation 3 describe the relationship between IC50 and Ki values for substrate competitive inhibitors, considering the fixed substrate concentration and the enzyme’s Km value for the substrate: […]

[2] = molecular target: T2, APMA activated MMP-9 (MMP-9(A)) (Homo sapiens, UniProt P14780); experiment: as above; assay type: biochemical; settings: for inhibitory effect on enzymatic activity: 100 μM compound, in words; for Ki: read-out: Ki ± s.d. (converted)
T2 construct: made in house; host or cells: Sf9 and High Five insect cells
Description: (§5) The expression of recombinant full length proMMP-9 (rpMMP-9) in Sf9 and High Five insect cells and the purification were performed as previously described. The amount of proMMP-9 was estimated spectrophotometrically at 280 nm using ε280nm = […] [46] for the full length enzyme. Activation of the recombinant proMMP-9 was performed with APMA (auto-activation) and Mag-Trypsin as previously described, while the amount of active MMP-9 was determined by active site titration using galardin, also described previously.
as §1, §2, §3, §4

[3] = molecular target: T3, Mag-Trypsin activated MMP-9 (MMP-9(MT)) (Homo sapiens, UniProt P14780); experiment: as above; assay type: biochemical; settings: for inhibitory effect on enzymatic activity: 100 μM compound, in words; for Ki: read-out: Ki ± s.d. (converted)
T3 construct: made in house; host or cells: Sf9 and High Five insect cells
Description: as §5, §1, §2, §3, §4

aureolysin (ALN) = molecular target: T4, aureolysin (ALN) (Staphylococcus aureus, UniProt P81177); experiment: Enzyme inhibition kinetics, fluorogenic substrate ES005; assay type: biochemical; settings: for inhibitory effect on enzymatic activity: 100 μM compound, in words
T4 construct: purchased BioCentrum Ltd (Kraków, Poland)
Description: as §1, §2, §3, §4

pseudolysin (PLN, LasB) = molecular target: T5, pseudolysin (PLN, LasB) (Pseudomonas aeruginosa, UniProt P14756); experiment: as above; assay type: biochemical; settings: for inhibitory effect on enzymatic activity: 100 μM compound, in words
T5 construct: purchased Calbiochem (San Diego, CA, USA)
Description: as §1, §2, §3, §4

thermolysin (TLN) [4] = molecular target: T6, thermolysin (TLN) (Bacillus thermoproteolyticus, UniProt P00800); experiment: as above; assay type: biochemical; settings: for inhibitory effect on enzymatic activity: 100 μM compound, in words; for Ki: read-out: Ki ± s.d.
T6 construct: purchased Calbiochem (San Diego, CA, USA)
Description: as §1, §2, §3, §4

MMP-9(A) = molecular target: T7, MMP-9(A) (Homo sapiens, UniProt P14780); design: method as in PMID 33757387; settings: 1% DMSO; cited from earlier work
T7 construct: made in house; host or cells: Sf9 and High Five insect cells

MMP-14 = molecular target: T8, MMP-14 (Homo sapiens, UniProt P50281); design: method as in PMID 33757387; settings: 1% DMSO; cited from earlier work
T8 construct: human MT1-MMP/MMP-14 (catalytic domain); purchased Calbiochem (San Diego, CA, USA)

thermolysin (TLN) [5] = molecular target: T6, thermolysin (TLN); experiment: MALDI-TOF MS analysis of ES005 cleavage; assay type: biochemical; settings: One μM galardin, 100 nM TLN
Description: MALDI-TOF MS spectra were recorded for samples containing different enzyme and substrate concentrations at various time points using an Autoflex Speed instrument (Bruker Daltonik GmbH, Leipzig, Germany) equipped with a 355-nm nitrogen laser for desorption and ionization. The ionization matrix, HCCA, was dissolved to 10 mg/mL in a standard solvent (50% MeCN, 47.5% MQ-water, and 2.5% TFA) by vigorous vortexing. Prior to the MALDI run, a main buffer (0.1 M Hepes, pH 7.5, 10 mM CaCl2) was used to dilute TLN to stock concentrations of 1000, 100 and 50 nM, ES005–500 µM, and galardin to 10 µM. All stocks solutions were kept on ice. For the 0 min incubation, 1 µL TLN and 1 µL galardin were preincubated at 37°C in 8 µL of the main buffer for 10 min before adding 1 µL of ES005. For all other time points, 1 µL of ES005 was added to tubes containing 8 µL buffer and 1 µL of TLN at different concentrations, followed by incubation at 37°C. At each timepoint (0, 1, 3, 5, 10, 20, 30, 60, 120 min), 1 µL of galardin was added to stop enzyme activity. After the final incubation, 1 µL aliquots from each timepoint were mixed with an equal volume of HCCA and spotted onto a MALDI plate. […] The resulting mass spectra were analysed using flexAnalysis software (v3.3, Bruker).

T5 sequence (P14756 198-498): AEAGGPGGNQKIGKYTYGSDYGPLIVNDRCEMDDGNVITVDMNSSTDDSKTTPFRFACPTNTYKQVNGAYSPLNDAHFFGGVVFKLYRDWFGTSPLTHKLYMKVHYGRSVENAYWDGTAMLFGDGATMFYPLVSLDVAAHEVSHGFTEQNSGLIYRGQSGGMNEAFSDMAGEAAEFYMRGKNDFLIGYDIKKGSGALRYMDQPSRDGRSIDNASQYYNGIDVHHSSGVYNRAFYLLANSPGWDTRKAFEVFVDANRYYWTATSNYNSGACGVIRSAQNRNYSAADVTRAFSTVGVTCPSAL
T3 sequence (P14780 107-707 limits assumed): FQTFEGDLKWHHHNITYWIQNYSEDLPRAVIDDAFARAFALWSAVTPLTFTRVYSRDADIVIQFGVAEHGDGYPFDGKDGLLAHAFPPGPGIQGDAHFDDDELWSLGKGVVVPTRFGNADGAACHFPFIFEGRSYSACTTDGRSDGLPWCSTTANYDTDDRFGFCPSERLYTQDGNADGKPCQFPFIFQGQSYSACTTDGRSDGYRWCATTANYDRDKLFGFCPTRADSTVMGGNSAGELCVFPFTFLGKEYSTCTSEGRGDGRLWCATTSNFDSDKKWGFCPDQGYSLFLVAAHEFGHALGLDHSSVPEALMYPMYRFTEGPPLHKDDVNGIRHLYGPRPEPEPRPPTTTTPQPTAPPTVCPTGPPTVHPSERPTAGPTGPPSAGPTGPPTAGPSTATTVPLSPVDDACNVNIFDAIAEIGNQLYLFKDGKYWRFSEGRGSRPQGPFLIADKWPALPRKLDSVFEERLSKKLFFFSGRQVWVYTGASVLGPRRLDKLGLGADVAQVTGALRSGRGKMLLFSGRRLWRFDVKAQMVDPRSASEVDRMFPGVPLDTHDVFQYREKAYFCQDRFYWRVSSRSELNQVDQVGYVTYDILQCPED
T2 sequence (P14780 107-707 limits assumed): as above
T4 sequence (P81177 209-509): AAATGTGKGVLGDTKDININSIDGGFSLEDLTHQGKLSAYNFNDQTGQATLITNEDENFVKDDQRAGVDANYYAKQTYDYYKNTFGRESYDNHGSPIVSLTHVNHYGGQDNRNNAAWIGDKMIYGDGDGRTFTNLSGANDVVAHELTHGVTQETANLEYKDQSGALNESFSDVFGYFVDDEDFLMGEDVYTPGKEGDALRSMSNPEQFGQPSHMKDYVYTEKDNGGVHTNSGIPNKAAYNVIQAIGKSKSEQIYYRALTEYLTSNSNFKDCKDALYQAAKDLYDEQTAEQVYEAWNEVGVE
T6 sequence (P00800 233-548): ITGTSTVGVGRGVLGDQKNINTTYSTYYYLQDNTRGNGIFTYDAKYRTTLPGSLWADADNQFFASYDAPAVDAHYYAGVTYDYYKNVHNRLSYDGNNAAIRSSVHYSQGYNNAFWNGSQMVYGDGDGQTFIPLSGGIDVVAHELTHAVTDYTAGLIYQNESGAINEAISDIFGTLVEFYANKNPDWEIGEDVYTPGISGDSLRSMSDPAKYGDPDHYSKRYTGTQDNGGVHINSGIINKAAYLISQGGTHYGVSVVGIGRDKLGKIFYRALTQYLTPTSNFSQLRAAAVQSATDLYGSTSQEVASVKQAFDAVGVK
T7 sequence (P14780 107-707 limits assumed): as the sequence (P14780 107-707 limits assumed) above

CCOC(=O)C(CO)CP(=O)(O)C(Cc1ccccc1)NC(=O)OCc1ccccc1 (stereo not shown) [H-5]
inhibitory effect on enzymatic activity ([1]; MMP-14, 100 μM compound): weak or no inhibition
Ki [1]: ≥ 100 µM
inhibitory effect on enzymatic activity ([2]; MMP-9(A)): weak or no inhibition
Ki [2]: ≥ 100 µM
inhibitory effect on enzymatic activity ([3]; MMP-9(MT)): weak or no inhibition
Ki [3]: ≥ 100 µM
Ki (aureolysin (ALN)): ≥ 100 µM
inhibitory effect on enzymatic activity (aureolysin (ALN); ALN): weak or no inhibition
Ki (pseudolysin (PLN, LasB)): ≥ 100 µM
inhibitory effect on enzymatic activity (pseudolysin (PLN, LasB); PLN): weak or no inhibition
inhibitory effect on enzymatic activity (thermolysin (TLN) [4]; TLN): weak or no inhibition
Ki (thermolysin (TLN) [4]): ≥ 100 µM

CC(=O)NC(CC(C)C)C(=O)CC(C)P(=O)(O)CC(Cc1ccccc1)C(=O)O (stereo not shown) [H-3]
inhibitory effect on enzymatic activity ([1]; MMP-14, 100 μM compound): weak or no inhibition
pre-incubation time after which inhibition stabilizes (slow binding) ([1]; MMP-14, 100 μM compound, pre-incubation at room temperature): 15 min
Ki ([1]; MMP-14, substrate ES001 4.0 µM, 0.1 M Hepes pH 7.5, 37°C, 1.0% DMSO, Ki from IC50 (Eqn. 3)): ≥ 100 µM
inhibitory effect on enzymatic activity ([2]; MMP-9(A)): weak or no inhibition
Ki ([2]; MMP-9(A), substrate ES001 4.0 µM, 0.1 M Hepes pH 7.5, 37°C, 1.0% DMSO, Ki from IC50 (Eqn. 3)): ≥ 100 µM
inhibitory effect on enzymatic activity ([3]; MMP-9(MT)): weak or no inhibition
Ki ([3]; MMP-9(MT), substrate ES001 4.0 µM, 0.1 M Hepes pH 7.5, 37°C, 1.0% DMSO, Ki from IC50 (Eqn. 3)): ≥ 100 µM
inhibitory effect on enzymatic activity (aureolysin (ALN); ALN): weak or no inhibition
Ki (aureolysin (ALN); read-out: Ki ± s.d., ALN, substrate ES005 4.0 µM, 0.1 M Hepes pH 7.5, 37°C, 1.0% DMSO, Ki from IC50 (Eqn. 3)): ≥ 100 µM
inhibitory effect on enzymatic activity (pseudolysin (PLN, LasB); PLN): weak or no inhibition
Ki (pseudolysin (PLN, LasB); read-out: Ki ± s.d., PLN, substrate ES005 4.0 µM, 0.1 M Hepes pH 7.5, 37°C, 1.0% DMSO, Ki from IC50 (Eqn. 3)): ≥ 100 µM
inhibitory effect on enzymatic activity (thermolysin (TLN) [4]; TLN): weak or no inhibition
Ki (thermolysin (TLN) [4]; TLN, substrate ES005 4.0 µM, 0.1 M Hepes pH 7.5, 37°C, 1.0% DMSO, Ki from IC50 (Eqn. 3)): ≥ 100 µM

COc1ccc2c(CC(=O)N3CCC[C@H]3C(=O)N[C@@H](CC(C)C)C(=O)NCC(=O)N[C@@H](CC(C)C)C(=O)N[C@@H](CNc3ccc([N+](=O)[O-])cc3[N+](=O)[O-])C(=O)N[C@@H](C)C(=O)N[C@@H](CCCNC(=N)N)C(N)=O)cc(=O)oc2c1 [ES001, Mca-Pro-Leu-Gly-Leu-Dpa-Ala-Arg-NH2] (Mca-PLGL[Dap](Dnp)AR-NH2)
Km (MMP-9(A)): 4 ± 1 µM
Km (MMP-14): 4.9 ± 0.4 µM

CC(NC(=O)OCc1ccccc1)P(=O)(O)CC(Cc1ccccc1)C(=O)O (stereo not shown) [H-4]
inhibitory effect on enzymatic activity ([1]; MMP-14, 100 μM compound): weak or no inhibition
Ki [1]: ≥ 100 µM
inhibitory effect on enzymatic activity ([2]; MMP-9(A)): weak or no inhibition
Ki [2]: ≥ 100 µM
inhibitory effect on enzymatic activity ([3]; MMP-9(MT)): weak or no inhibition
Ki [3]: ≥ 100 µM
Ki (aureolysin (ALN)): ≥ 100 µM
inhibitory effect on enzymatic activity (aureolysin (ALN); ALN): weak or no inhibition
Ki (pseudolysin (PLN, LasB)): ≥ 100 µM
inhibitory effect on enzymatic activity (pseudolysin (PLN, LasB); PLN): weak or no inhibition
inhibitory effect on enzymatic activity (thermolysin (TLN) [4]; TLN): weak or no inhibition
Ki (thermolysin (TLN) [4]): ≥ 100 µM

CNC(=O)[C@H](Cc1c[nH]c2ccccc12)NC(=O)[C@@H](CC(=O)NO)CC(C)C [galardin]
inhibition of TLN (stopping of substrate cleavage) (thermolysin (TLN) [5]): not sufficient to completely inhibit
